The target in the experiment is T1, ERα (Homo sapiens, UniProt P03372).
T1 construct: host or cells: MCF7
T1 sequence (P03372 1-595): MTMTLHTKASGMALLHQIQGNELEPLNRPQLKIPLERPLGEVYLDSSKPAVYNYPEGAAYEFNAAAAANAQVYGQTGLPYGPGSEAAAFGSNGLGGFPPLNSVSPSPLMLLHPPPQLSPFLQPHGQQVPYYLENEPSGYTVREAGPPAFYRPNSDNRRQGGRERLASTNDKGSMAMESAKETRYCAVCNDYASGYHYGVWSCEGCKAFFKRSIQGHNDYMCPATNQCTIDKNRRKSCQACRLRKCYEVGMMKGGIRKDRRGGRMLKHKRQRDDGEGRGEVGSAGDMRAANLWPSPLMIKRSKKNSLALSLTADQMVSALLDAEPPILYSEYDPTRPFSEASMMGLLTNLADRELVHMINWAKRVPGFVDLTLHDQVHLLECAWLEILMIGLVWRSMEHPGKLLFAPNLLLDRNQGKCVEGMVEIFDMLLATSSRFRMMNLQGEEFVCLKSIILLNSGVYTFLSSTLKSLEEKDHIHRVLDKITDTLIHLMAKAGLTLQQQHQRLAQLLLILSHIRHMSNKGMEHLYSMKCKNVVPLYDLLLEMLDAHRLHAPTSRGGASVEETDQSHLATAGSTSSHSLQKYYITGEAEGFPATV
As to the kind of experiment: Estrogen receptor degradation activity: breast cancer cell ERα in cell western assay (MCF7 cells). The experiment is classed as cell-based. The settings on record: for % Degradation At 0.3 μM: 4 hours, relative to fulvestrant 0.1 μM positive control; for DC50: 4 hours post compound addition, concentration which degrades 50% of the estrogen receptor, read-out: Degradation IC50. The gist of the method: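 In-cell western readout: ERα immunofluorescence (Alexa 488) normalised to DNA signal (Syto-64) after formalin fixation. Compounds dosed for 4 h on MCF7 cells in stripped-serum, phenol-red-free medium over nine 1:5 steps, 0.3 to […] final; fulvestrant 0.1 μM control. IC50 in nM for 50% ERα degradation.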

Molecules are shown by their SMILES.

As for `O=C(O)c1ccc2c(c1)CCCC(C1CC13CCC3)=C2c1ccc(C=C2CN(CCCF)C2)cc1` (stereo not drawn) [Example 176, 9-(4-((1-(3-fluoropropyl)azetidin-3-ylidene)methyl)phenyl)-8-(spiro[2.3]hexan-1-yl)-6,7-dihydro-5H-benzo[7]annulene-3-carboxylic acid], the “% Degradation At 0.3 μM” value came out at 93% and the DC50 was found to be 0.3 nM.
The matching figures for `CC1CCc2cc(C(=O)O)ccc2C(c2ccc(C=C3CN(CCCF)C3)cc2)=C1c1ccc(Cl)cc1Cl` (racemic) [Example 166, 8-(2,4-Dichlorophenyl)-9-(4-((1-(3-fluoropropyl)azetidin-3-ylidene)methyl)phenyl)-7-methyl-6,7-dihydro-5H-benzo[7]annulene-3-carboxylic acid, racemic mixture]: 95% and 0.6 nM.
As to `Cc1cccc(C2=C(c3ccc(C=C4CN(CCCF)C4)cc3)c3ccc(C(=O)O)cc3CCC2)c1C` [Example 94, 8-(2,3-dimethylphenyl)-9-(4-((1-(3-fluoropropyl)azetidin-3-ylidene)methyl)phenyl)-6,7-dihydro-5H-benzo[7]annulene-3-carboxylic acid], the “% Degradation At 0.3 μM” value was found to be 96% and the DC50 was 0.2 nM.
On the same counts, the results for `O=C(O)c1ccc2c(c1)CCCC(c1cccc(F)c1Cl)=C2c1ccc(C=C2CN(CCCF)C2)cc1` [Example 78, 8-(2-chloro-3-fluorophenyl)-9-(4-((1-(3-fluoropropyl)azetidin-3-ylidene)methyl)phenyl)-6,7-dihydro-5H-benzo[7]annulene-3-carboxylic acid] are 93% and 0.6 nM.
`O=C(O)c1ccc2c(c1)CCCC(c1ccc(F)cc1Cl)=C2c1ccc(C=C2CN(CCCF)C2)cc1` [Example 79, 8-(2-chloro-4-fluorophenyl)-9-(4-((1-(3-fluoropropyl)azetidin-3-ylidene)methyl)phenyl)-6,7-dihydro-5H-benzo[7]annulene-3-carboxylic acid]: the “% Degradation At 0.3 μM” value stood at 97% and the DC50 is 0.4 nM.
On the same counts, the results for `[2H]C([2H])(CCF)N1CC(=Cc2ccc(C3=C(c4ccc(Cl)cc4Cl)CCCc4cc(C(=O)O)ccc43)cc2)C1` [Example 122, 8-(2,4-dichlorophenyl)-9-(4-((1-(3-fluoropropyl-1,1-d2)azetidin-3-ylidene)methyl)phenyl)-6,7-dihydro-5H-benzo[7]annulene-3-carboxylic acid] are 94% and 0.4 nM.
`O=C(O)c1ccc2c(c1)CCCC(c1cccc(C(F)(F)F)c1F)=C2c1ccc(C=C2CN(CCCF)C2)cc1` [Example 56, 8-(2-fluoro-3-(trifluoromethyl)phenyl)-9-(4-((1-(3-fluoropropyl)azetidin-3-ylidene)methyl)phenyl)-6,7-dihydro-5H-benzo[7]annulene-3-carboxylic acid]: the “% Degradation At 0.3 μM” value was 93% and the DC50 stood at 0.2 nM.
The matching figures for `O=C(O)c1ccc2c(c1)CCCC([C@@H]1C[C@H]1C1CCC(F)(F)CC1)=C2c1ccc(C=C2CN(CCCF)C2)cc1` (racemic) [Example 187, 8-(trans-2-(4,4-difluorocyclohexyl)cyclopropyl)-9-(4-((1-(3-fluoropropyl)azetidin-3-ylidene)methyl)phenyl)-6,7-dihydro-5H-benzo[7]annulene-3-carboxylic acid]: 86% and 1.6 nM.
As for `Cc1cc(Cl)ccc1C1=C(c2ccc(C=C3CN(CCC(F)F)C3)cc2)c2ccc(C(=O)O)cc2CCC1` [Example 132, 8-(4-chloro-2-methylphenyl)-9-(4-((1-(3,3-difluoropropyl)azetidin-3-ylidene)methyl)phenyl)-6,7-dihydro-5H-benzo[7]annulene-3-carboxylic acid], the “% Degradation At 0.3 μM” value is 95% and the DC50 is 0.8 nM.
In the case of `O=C(O)c1ccc2c(c1)CCCC(c1cccc3c1CCCC3)=C2c1ccc(C=C2CN(CCCF)C2)cc1` [Example 177, 9-(4-((1-(3-fluoropropyl)azetidin-3-ylidene)methyl)phenyl)-8-(5,6,7,8-tetrahydronaphthalen-1-yl)-6,7-dihydro-5H-benzo[7]annulene-3-carboxylic acid], the “% Degradation At 0.3 μM” value is recorded as 92% and the DC50 was 1 nM.
On the same counts, the results for `Cc1cc(C2=C(c3ccc(Cl)cc3Cl)CCCc3cc(C(=O)O)ccc32)cc(F)c1C=C1CN(CCCF)C1.Cl` [Example 71, 8-(2,4-dichlorophenyl)-9-(3-fluoro-4-((1-(3-fluoropropyl)azetidin-3-ylidene)methyl)-5-methylphenyl)-6,7-dihydro-5H-benzo[7]annulene-3-carboxylic acid hydrochloride] are 101% and 0.2 nM.
With `Cc1ccc(C2=C(c3ccc(C=C4CN(CCCF)C4)cc3)c3ccc(C(=O)O)cc3CCC2)c(F)c1` [Example 57, 8-(2-fluoro-4-methylphenyl)-9-(4-((1-(3-fluoropropyl)azetidin-3-ylidene)methyl)phenyl)-6,7-dihydro-5H-benzo[7]annulene-3-carboxylic acid], the “% Degradation At 0.3 μM” value worked out at 93% and the DC50 amounted to 0.2 nM.
The matching figures for `O=C(O)c1ccc2c(c1)CCCC(c1cccc3c1CCC3(F)F)=C2c1ccc(C=C2CN(CCCF)C2)cc1` [Example 9, 8-(1,1-difluoro-2,3-dihydro-1H-inden-4-yl)-9-(4-((1-(3-fluoropropyl)azetidin-3-ylidene)methyl)phenyl)-6,7-dihydro-5H-benzo[7]annulene-3-carboxylic acid]: 90% and 0.6 nM.
In the case of `Cl.O=C(O)c1ccc2c(c1)CCCC(c1ccc(Cl)cc1Cl)=C2c1ccc(C=C2CN(CCCF)C2)c(F)c1F` [Example 80, 8-(2,4-dichlorophenyl)-9-(2,3-difluoro-4-((1-(3-fluoropropyl)azetidin-3-ylidene)methyl)phenyl)-6,7-dihydro-5H-benzo[7]annulene-3-carboxylic acid hydrochloride], the “% Degradation At 0.3 μM” value was determined as 98% and the DC50 was 0.6 nM.
On to `Cc1cc(F)ccc1C1=C(c2ccc(C=C3CN(CCCF)C3)cc2C(F)(F)F)c2ccc(C(=O)O)cc2CCC1` [Example 138, 8-(4-fluoro-2-methylphenyl)-9-(4-((1-(3-fluoropropyl)azetidin-3-ylidene)methyl)-2-(trifluoromethyl)phenyl)-6,7-dihydro-5H-benzo[7]annulene-3-carboxylic acid], for which the “% Degradation At 0.3 μM” value amounted to 95% and the DC50 is 1.8 nM.
On the same counts, the results for `O=C(O)c1ccc2c(c1)CCCC(c1ccc(F)cc1F)=C2c1ccc(C=C2CN(CCCF)C2)c(F)c1F` [Example 43, 9-(2,3-difluoro-4-((1-(3-fluoropropyl)azetidin-3-ylidene)methyl)phenyl)-8-(2,4-difluorophenyl)-6,7-dihydro-5H-benzo[7]annulene-3-carboxylic acid] are 92% and 0.4 nM.
On the same counts, the results for `Cc1cc(C(F)(F)F)ccc1C1=C(c2ccc(C=C3CN(CCCF)C3)cc2)c2ccc(C(=O)O)cc2CCC1` [Example 3, 9-(4-((1-(3-fluoropropyl)azetidin-3-ylidene)methyl)phenyl)-8-(2-methyl-4-(trifluoromethyl)phenyl)-6,7-dihydro-5H-benzo[7]annulene-3-carboxylic acid] are 90% and 0.3 nM.
On the same counts, the results for `Cl.O=C(O)c1ccc2c(c1)CCCC(c1ccccc1C(F)(F)F)=C2c1ccc(C=C2CN(CCCF)C2)cc1` [Example 183, 9-(4-((1-(3-fluoropropyl)azetidin-3-ylidene)methyl)phenyl)-8-(2-(trifluoromethyl)phenyl)-6,7-dihydro-5H-benzo[7]annulene-3-carboxylic acid hydrochloride] are 92% and 0.4 nM.
As for `O=C(O)c1ccc2c(c1)CCCC(c1ccc(F)c3c1CCC3)=C2c1ccc(C=C2CN(CCCF)C2)cc1` [Example 12, 8-(7-fluoro-2,3-dihydro-1H-inden-4-yl)-9-(4-((1-(3-fluoropropyl)azetidin-3-ylidene)methyl)phenyl)-6,7-dihydro-5H-benzo[7]annulene-3-carboxylic acid], the “% Degradation At 0.3 μM” value is reported as 93% and the DC50 stood at 0.4 nM.
On the same counts, the results for `Cc1c(C2=C(c3ccc(F)cc3F)CCCc3cc(C(=O)O)ccc32)ccc(C=C2CN(CCCF)C2)c1F.Cl` [Example 17, 8-(2,4-difluorophenyl)-9-(3-fluoro-4-((1-(3-fluoropropyl)azetidin-3-ylidene)methyl)-2-methylphenyl)-6,7-dihydro-5H-benzo[7]annulene-3-carboxylic acid hydrochloride] are 89% and 0.5 nM.
On the same counts, the results for `CCc1cc(F)ccc1C1=C(c2ccc(C=C3CN(CCCF)C3)cc2)c2ccc(C(=O)O)cc2CCC1` [Example 96, 8-(2-ethyl-4-fluorophenyl)-9-(4-((1-(3-fluoropropyl)azetidin-3-ylidene)methyl)phenyl)-6,7-dihydro-5H-benzo[7]annulene-3-carboxylic acid] are 98% and 0.2 nM.

(Values after US12612360B2 (Sanofi, priority 2020, dated 2026).)
